# In ChEMBL document CHEMBL1127001, “Novel sigma receptor ligands 2” (Bioorg Med Chem Lett, 1993):
# Columns and labels:
# Glutamate NMDA receptor = assay: Binding affinity towards PCP receptor in rat brain membrane using radiolabeled ligand [3H]TCP (1-[1-(2-thienyl)cyclohexyl]piperidine) was determined; format: cell membranes
# D(2) dopamine receptor = D(2) dopamine receptor (Homo sapiens, UniProt P14416); assay: Binding affinity towards dopamine D2 receptor using radiolabeled ligand [3H]spiperone
# [1] = target: T1, Sigma non-opioid intracellular receptor 1 (Homo sapiens, UniProt Q99720); assay: Binding affinity towards sigma receptor using radiolabeled ligand [3H]-(+)-SKF- 10,047 was determined
# [2] = target: T1, Sigma non-opioid intracellular receptor 1; assay: Binding affinity for sigma receptor using [3H]-(+)-SKF- 10,047
# [3] = Binding affinity towards dopamine D2 receptor using radiolabeled ligand [3H]spiperone
# Chain of D(2) dopamine receptor (P14416 whole entry): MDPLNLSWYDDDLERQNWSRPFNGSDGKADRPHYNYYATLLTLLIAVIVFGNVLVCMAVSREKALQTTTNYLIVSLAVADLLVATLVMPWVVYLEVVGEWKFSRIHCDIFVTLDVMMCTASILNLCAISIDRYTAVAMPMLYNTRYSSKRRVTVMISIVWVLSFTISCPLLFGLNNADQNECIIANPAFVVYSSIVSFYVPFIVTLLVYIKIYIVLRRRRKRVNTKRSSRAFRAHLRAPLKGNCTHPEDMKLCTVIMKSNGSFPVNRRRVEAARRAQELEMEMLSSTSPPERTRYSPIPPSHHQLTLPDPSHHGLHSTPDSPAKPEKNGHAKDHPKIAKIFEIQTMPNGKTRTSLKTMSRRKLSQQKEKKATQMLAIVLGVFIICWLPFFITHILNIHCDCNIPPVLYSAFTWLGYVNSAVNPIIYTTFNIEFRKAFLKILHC
# T1 sequence (Q99720 whole entry): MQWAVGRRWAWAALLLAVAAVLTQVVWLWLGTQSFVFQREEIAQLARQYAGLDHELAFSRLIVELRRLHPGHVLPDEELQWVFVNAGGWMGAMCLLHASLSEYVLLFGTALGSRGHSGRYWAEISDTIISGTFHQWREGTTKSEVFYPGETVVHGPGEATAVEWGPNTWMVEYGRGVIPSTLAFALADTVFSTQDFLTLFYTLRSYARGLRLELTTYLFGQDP
Structure (SMILES),Ki (Glutamate NMDA receptor) [nM],Ki (D(2) dopamine receptor) [nM],Ki [2] [nM],Ki [3] [nM],Ki [1] [nM]
O=C1CC2(CCN(CCc3ccccc3)CC2)OC=C1c1ccccc1,> 10000,2030,,,5
O=C1CC2(CCN(CCc3ccccc3)CC2)OCC1c1ccc(F)cc1 (stereo not drawn),14000,1530,,,
CN1CCC2(CC1)CC(=O)C(c1ccccc1)=CO2,,> 100000,6880,,
O=C1C=C(c2ccccc2)OC2(CCN(CCc3ccccc3)CC2)C1,,4200,10,,
O=C1CC2(CCN(CCc3ccccc3)CC2)OC=C1c1ccccc1F,30000,2330,,,1
O=C1C=C(c2ccco2)OC2(CCN(CCc3ccccc3)CC2)C1,,7600,70,,
O=C1CC2(CCN(CCc3ccccc3)CC2)OC=C1c1ccc(F)cc1,1690,2900,,,6
O=C1CC2(CCN(CCc3ccccc3)CC2)OC=C1c1cccs1,,1080,7,,
CN1CCC2(CC1)CC(=O)C(c1ccc(F)cc1)=CO2,,> 100000,7300,,
O=C1CC2(CN3CCC2CC3)OC=C1c1ccccc1 (stereo not drawn),,> 10000,1590,,
COc1ccc(C2=COC3(CCN(CCc4ccccc4)CC3)CC2=O)cc1,,1500,30,,
"CN1C2CCC1CC1(CC(=O)C(c3ccccc3)=CO1)C2 (single isomer, unassigned; (-))",,> 10000,1830,,
"O=C1C(c2ccc(F)cc2)COC12CCN(Cc1ccccc1)CC2 (single isomer, unassigned; (-))",2230,,,47,
"O=C1CC2(CCCN(Cc3ccccc3)C2)OC=C1c1ccc(F)cc1 (single isomer, unassigned; (-))",> 10000,8780,,,131

# More lines, main results first:
Ki (Glutamate NMDA receptor) [nM],Ki (D(2) dopamine receptor) [nM],Ki [2] [nM],Ki [3] [nM],Structure (SMILES),Ki [1] [nM]
> 10000,> 10000,,,O=C1C[C@]2(CC[C@@H](OCc3ccccc3)CC2)OC=C1c1ccccc1,
> 10000,> 10000,,,O=C1C[C@]2(CC[C@H](OCc3ccccc3)CC2)OC=C1c1ccccc1,
,1460,,,O=C1CC2(CCN(Cc3ccccc3)CC2)OC=C1c1ccccc1,
> 10000,> 10000,,,"CCN(CC)CCCC1(C)CC(=O)C(c2ccccc2)=CO1 (single isomer, unassigned; (-))",34
,4100,352,,"CN(C)CC1(C)CC(=O)C(c2ccccc2)=CO1 (single isomer, unassigned; (-))",
,,13,,"O=C1CC2(CCCN(Cc3ccccc3)C2)OC=C1c1ccccc1 (single isomer, unassigned; (-))",
